According to patent publication US6344344B1, “Method for producing uridine-5'-monophosphate by fermentation using mutant strains of coryneform bacteria” (Ajinomoto Co., Inc., priority 1999, dated 2002):
Read-outs that look alike come from different tables or passages of the source.

Tests used:
Assay type in all cases: cell-based
[1] = test system: Corynebacterium ammoniagenes VKPM B-6307; details: for Growth of the strains B-6307: basal agar medium A; for Growth of the strain VKPM B-6307 With addition (medium B): medium B (guanine, arginine, casamino acid added)
[2] = test system: Corynebacterium ammoniagenes LK 40-2 (VKPM B-7811); assay: Growth of the strain in the presence of pyrimidine analogues
Protocol: Corynebacterium ammoniagenes VKPM B-6307 was treated with 50 μg/ml of NTG for 20 minutes followed by ampicillin-enrichment procedure for obtaining mutants which could not utilize uridine effectively as a sole carbon source (uridine was added into liquid medium A of Table 2 instead of glucose). The obtained mutant cells were plated on a medium B of Table 2 supplemented with guanine (100 μg/ml), arginine (500 μg/ml), casamino acids (200 μg/ml) and 100 μg/ml of 5-fluorouridine.
The inoculated plates were incubated at 30° C. for 3 days.
The extent of resistance to various pyrimidine analogues of this strain as well as that of the parent strain VKPM B-6307 is shown in Table 4.
(§1) Extent of resistance of this strain to various pyrimidine analogues as well as that of the parent strains LK 40-2 and LK 75-15 is shown in Table 11.

[3] = test system: Corynebacterium ammoniagenes LK 75-15 (VKPM B-7812); assay: as above
[4] = test system: Corynebacterium ammoniagenes ATCC 6872; assay: as above; details: basal agar medium A
[5] = test system: Corynebacterium ammoniagenes LK 75-66 (VKPM B-7813); assay: as above
Text: as §1

[6] = test system: Corynebacterium ammoniagenes LK 75-15 (VKPM B-7812); assay: as above; remark: listed apart in the source
Text: as §1

[7] = medium B with 100 μg/ml analogue, 30° C., 3 days

## O=c1cc[nH]c(=S)[nH]1 [2-Thiouracil]
[1]; Table 4, analogue 1000 μg/ml
  Growth of the strain B-6307: −
[1]; Table 8, analogue 1000 μg/ml
  Growth of the strain B-6307: −
[1]; analogue 500 μg/ml
  Growth of the strains B-6307: +
[1]; analogue 1000 μg/ml
  Growth of the strains B-6307: +
[1]; analogue 3000 μg/ml
  Growth of the strains B-6307: +
[1]; analogue 5000 μg/ml
  Growth of the strains B-6307: +
[2]; Table 4, analogue 1000 μg/ml
  Growth of the strain LK 40-2: +
[2]; Table 11, analogue 1000 μg/ml
  Growth of the strain LK 40-2: +
[3]; Table 8, analogue 1000 μg/ml
  Growth of the Strain LK 75-15: +
[4]; analogue 500 μg/ml
  Growth of the strains ATCC6872: −
[4]; analogue 1000 μg/ml
  Growth of the strains ATCC6872: −
[4]; analogue 3000 μg/ml
  Growth of the strains ATCC6872: −
[4]; analogue 5000 μg/ml
  Growth of the strains ATCC6872: −
[5]; Table 11, analogue 1000 μg/ml
  Growth of the Strain LK 75-66: +
[6]; Table 11, analogue 1000 μg/ml
  Growth of the Strain LK 75-15: +

## O=c1[nH]cc(F)c(=O)[nH]1 [5-Fluorouracil]
[1]; Table 4, analogue 100 μg/ml
  Growth of the strain B-6307: −
[1]; Table 4, analogue 300 μg/ml
  Growth of the strain B-6307: −
[1]; Table 4, analogue 500 μg/ml
  Growth of the strain B-6307: −
[1]; Table 4, analogue 1000 μg/ml
  Growth of the strain B-6307: −
[1]; Table 8, analogue 100 μg/ml
  Growth of the strain B-6307: −
[1]; Table 8, analogue 300 μg/ml
  Growth of the strain B-6307: −
[1]; Table 8, analogue 500 μg/ml
  Growth of the strain B-6307: −
[1]; Table 8, analogue 1000 μg/ml
  Growth of the strain B-6307: −
[1]; analogue 50 μg/ml
  Growth of the strains B-6307: +
[1]; analogue 100 μg/ml
  Growth of the strains B-6307: +
  Growth of the strain VKPM B-6307 No addition (medium A): +
  Growth of the strain VKPM B-6307 With addition (medium B): −
[1]; analogue 200 μg/ml
  Growth of the strains B-6307: +
  Growth of the strain VKPM B-6307 No addition (medium A): +
  Growth of the strain VKPM B-6307 With addition (medium B): −
[1]; analogue 500 μg/ml
  Growth of the strain VKPM B-6307 No addition (medium A): +
  Growth of the strain VKPM B-6307 With addition (medium B): −
[1]; analogue 600 μg/ml
  Growth of the strains B-6307: +
[1]; analogue 1000 μg/ml
  Growth of the strain VKPM B-6307 No addition (medium A): +
  Growth of the strain VKPM B-6307 With addition (medium B): −
[2]; Table 4, analogue 100 μg/ml
  Growth of the strain LK 40-2: +
[2]; Table 4, analogue 300 μg/ml
  Growth of the strain LK 40-2: +
[2]; Table 4, analogue 500 μg/ml
  Growth of the strain LK 40-2: +
[2]; Table 4, analogue 1000 μg/ml
  Growth of the strain LK 40-2: +
[2]; Table 11, analogue 100 μg/ml
  Growth of the strain LK 40-2: +
[2]; Table 11, analogue 300 μg/ml
  Growth of the strain LK 40-2: +
[2]; Table 11, analogue 500 μg/ml
  Growth of the strain LK 40-2: +
[2]; Table 11, analogue 1000 μg/ml
  Growth of the strain LK 40-2: +
[3]; Table 8, analogue 100 μg/ml
  Growth of the Strain LK 75-15: +
[3]; Table 8, analogue 300 μg/ml
  Growth of the Strain LK 75-15: −
[3]; Table 8, analogue 500 μg/ml
  Growth of the Strain LK 75-15: −
[3]; Table 8, analogue 1000 μg/ml
  Growth of the Strain LK 75-15: −
[4]; analogue 50 μg/ml
  Growth of the strains ATCC6872: −
[4]; analogue 100 μg/ml
  Growth of the strains ATCC6872: −
[4]; analogue 200 μg/ml
  Growth of the strains ATCC6872: −
[4]; analogue 600 μg/ml
  Growth of the strains ATCC6872: −
[5]; Table 11, analogue 100 μg/ml
  Growth of the Strain LK 75-66: +
[5]; Table 11, analogue 300 μg/ml
  Growth of the Strain LK 75-66: +
[5]; Table 11, analogue 500 μg/ml
  Growth of the Strain LK 75-66: −
[5]; Table 11, analogue 1000 μg/ml
  Growth of the Strain LK 75-66: −
[6]; Table 11, analogue 100 μg/ml
  Growth of the Strain LK 75-15: +
[6]; Table 11, analogue 300 μg/ml
  Growth of the Strain LK 75-15: −
[6]; Table 11, analogue 500 μg/ml
  Growth of the Strain LK 75-15: −
[6]; Table 11, analogue 1000 μg/ml
  Growth of the Strain LK 75-15: −

## O=c1[nH]c(=O)n([C@@H]2O[C@H](CO)[C@@H](O)[C@H]2O)cc1F [5-Fluouridine]
[1]; Table 4, analogue 100 μg/ml
  Growth of the strain B-6307: −
[1]; Table 4, analogue 300 μg/ml
  Growth of the strain B-6307: −
[1]; Table 4, analogue 500 μg/ml
  Growth of the strain B-6307: −
[1]; Table 4, analogue 1000 μg/ml
  Growth of the strain B-6307: −
[1]; Table 8, analogue 100 μg/ml
  Growth of the strain B-6307: −
[1]; Table 8, analogue 300 μg/ml
  Growth of the strain B-6307: −
[1]; Table 8, analogue 500 μg/ml
  Growth of the strain B-6307: −
[1]; Table 8, analogue 1000 μg/ml
  Growth of the strain B-6307: −
[1]; analogue 100 μg/ml
  Growth of the strains B-6307: +
  Growth of the strain VKPM B-6307 No addition (medium A): +
  Growth of the strain VKPM B-6307 With addition (medium B): −
[1]; analogue 200 μg/ml
  Growth of the strains B-6307: +
  Growth of the strain VKPM B-6307 No addition (medium A): +
  Growth of the strain VKPM B-6307 With addition (medium B): −
[1]; analogue 400 μg/ml
  Growth of the strains B-6307: +
[1]; analogue 500 μg/ml
  Growth of the strain VKPM B-6307 No addition (medium A): +
  Growth of the strain VKPM B-6307 With addition (medium B): −
[1]; analogue 600 μg/ml
  Growth of the strains B-6307: +
[1]; analogue 1000 μg/ml
  Growth of the strain VKPM B-6307 No addition (medium A): +
  Growth of the strain VKPM B-6307 With addition (medium B): −
[1]; [7]
  growth of the parent strain on supplemented medium: could not grow
[2]; Table 4, analogue 100 μg/ml
  Growth of the strain LK 40-2: +
[2]; Table 4, analogue 300 μg/ml
  Growth of the strain LK 40-2: +
[2]; Table 4, analogue 500 μg/ml
  Growth of the strain LK 40-2: +
[2]; Table 4, analogue 1000 μg/ml
  Growth of the strain LK 40-2: +
[2]; Table 11, analogue 100 μg/ml
  Growth of the strain LK 40-2: +
[2]; Table 11, analogue 300 μg/ml
  Growth of the strain LK 40-2: +
[2]; Table 11, analogue 500 μg/ml
  Growth of the strain LK 40-2: +
[2]; Table 11, analogue 1000 μg/ml
  Growth of the strain LK 40-2: +
[2]; [7]
  growth of strain LK 40-2 on supplemented medium: capable of growing
[3]; Table 8, analogue 100 μg/ml
  Growth of the Strain LK 75-15: +
[3]; Table 8, analogue 300 μg/ml
  Growth of the Strain LK 75-15: +
[3]; Table 8, analogue 500 μg/ml
  Growth of the Strain LK 75-15: −
[3]; Table 8, analogue 1000 μg/ml
  Growth of the Strain LK 75-15: −
[3]; Table 11, analogue 300 μg/ml
  Growth of the Strain LK 75-15: +
[3]; Table 11, analogue 500 μg/ml
  Growth of the Strain LK 75-15: −
[4]; analogue 100 μg/ml
  Growth of the strains ATCC6872: −
[4]; analogue 200 μg/ml
  Growth of the strains ATCC6872: −
[4]; analogue 400 μg/ml
  Growth of the strains ATCC6872: −
[4]; analogue 600 μg/ml
  Growth of the strains ATCC6872: −
[5]; Table 11, analogue 100 μg/ml
  Growth of the Strain LK 75-66: +
[5]; Table 11, analogue 300 μg/ml
  Growth of the Strain LK 75-66: +
[5]; Table 11, analogue 500 μg/ml
  Growth of the Strain LK 75-66: +
[5]; Table 11, analogue 1000 μg/ml
  Growth of the Strain LK 75-66: −
[6]; Table 11, analogue 100 μg/ml
  Growth of the Strain LK 75-15: +
[6]; Table 11, analogue 1000 μg/ml
  Growth of the Strain LK 75-15: −

## O=c1cn[nH]c(=O)[nH]1 [6-Azauracil]
[1]; Table 4, analogue 1000 μg/ml
  Growth of the strain B-6307: −
[1]; Table 8, analogue 1000 μg/ml
  Growth of the strain B-6307: −
[1]; analogue 500 μg/ml
  Growth of the strains B-6307: +
[1]; analogue 1000 μg/ml
  Growth of the strains B-6307: +
[1]; analogue 3000 μg/ml
  Growth of the strains B-6307: +
[1]; analogue 5000 μg/ml
  Growth of the strains B-6307: +
[2]; Table 4, analogue 1000 μg/ml
  Growth of the strain LK 40-2: +
[2]; Table 11, analogue 1000 μg/ml
  Growth of the strain LK 40-2: +
[3]; Table 8, analogue 1000 μg/ml
  Growth of the Strain LK 75-15: +
[4]; analogue 500 μg/ml
  Growth of the strains ATCC6872: −
[4]; analogue 1000 μg/ml
  Growth of the strains ATCC6872: −
[4]; analogue 3000 μg/ml
  Growth of the strains ATCC6872: −
[4]; analogue 5000 μg/ml
  Growth of the strains ATCC6872: −
[5]; Table 11, analogue 1000 μg/ml
  Growth of the Strain LK 75-66: +
[6]; Table 11, analogue 1000 μg/ml
  Growth of the Strain LK 75-15: +
